# From patent publication US20050164882A1, “Method for increasing the resistance of plants to the phytotoxicity of agrochemicals” (priority 2002, published 2005)
# What was measured:
# Rice cv. “Koshihikari” = assay: Effect on plant growth: plant height (stunting) of rice clumps after seedbox spray and transplanting into the field; format: in vivo; settings: 200 g of active ingredient A per hectare; three weeks after the treatment
# From the text: Rice cv. “Koshihikari” was sown in a seedbox and grown for 24 days under controlled warm and moist conditions in controlled-environment cabinets and in the greenhouse. Two days before the rice was transplanted into the field, each of the seedboxes was sprayed to runoff point with preparations of the active ingredient in the concentrations mentioned hereinbelow in the form of an aqueous suspension made with a stock solution consisting of 10% active ingredient, 85% cyclohexanone and 5% emulsifier. The seedboxes were subsequently cultured in the greenhouse for a further 2 days until the rice was manually transplanted into the field at a rate of 5 clumps per m^2.
# Three weeks after the treatment, the plant height of the rice clumps was measured and compared with untreated rice plants. The extent of plant stunting is a measure for the plant-damaging effect of substances on the root system.
# [1] = tested on: Oryza sativa (rice, ORYSA); assay: Greenhouse post-emergence phytotoxicity, rice; settings: Table 2a
# Procedure: The active ingredients were prepared separately or jointly as a 10% emulsion in a mixture of 85% by weight of cyclohexanone, 5% by weight of Nekanil® LN (Lutensol® AP6, wetter with emulsifying and dispersing action based on ethoxylated alkylphenols) and 10% by weight of Wettol® EM (nonionic emulsifier based on ethoxylated castor oil) and diluted with water to give the desired concentration.
# The culture containers used were plastic pots containing loamy sand with approximately 3.0% humus as substrate. The seeds of the test plants were sown separately for each species.
# The test plants were grown separately as seedlings and transplanted into the experimental containers a few days before the treatment.
# Depending on the species, the plants were kept at temperatures of from 10 to 25° C. or 20 to 35° C. The experimental period extended over 2 to 4 weeks. During this time, the plants were tended, and their response to the individual treatments was evaluated.
# The phytotoxicity was evaluated using a scale of from 0 to 100. In this context, 100 means complete destruction of at least the aerial parts, and 0 means no damage or normal course of growth.
# [2] = tested on: Echinochloa crus-galli (barnyardgrass, ECHCG); assay: Greenhouse post-emergence phytotoxicity, barnyardgrass; format: in vivo; settings: Table 2a, application rate 0.0039 kg/ha, scale 0 to 100
# From the text: (§1) The experimental period extended over 2 to 4 weeks.
# [3] = tested on: Triticum aestivum (spring wheat, TRZAS); assay: Greenhouse post-emergence phytotoxicity, spring wheat; format: in vivo; settings: Table 2b, scale 0 to 100
# From the text: as §1
# [4] = tested on: Chenopodium album (pigweed, CHEAL); assay: Greenhouse post-emergence phytotoxicity, pigweed; format: in vivo; settings: Table 2b, application rate 0.0313 kg/ha, scale 0 to 100
# From the text: as §1
# [5] = tested on: Pharbitis purpurea (morningglory, PHBPU); assay: Greenhouse post-emergence phytotoxicity, morningglory; format: in vivo; settings: scale 0 to 100
# From the text: as §1
compound,measurement,setting,value
"C[C@H](Nc1c(-c2c(F)cc(F)cc2F)c(Cl)nc2ncnn12)C(F)(F)F [A, [5-chloro-6-(2,4,6-trifluorophenyl)-[1,2,4]triazolo[1,5-a]pyrimidin-7-yl]-((S)-2,2,2-trifluoro-1-methylethyl)amine]",stunting (plant height compared with untreated rice plants),Rice cv. “Koshihikari”,15%
"Cc1c(C(=O)c2cnn(C)c2O)ccc(S(C)(=O)=O)c1C1=NOCC1 [B, [3-(4,5-dihydroisoxazol-3-yl)-4-methane-sulfonyl-2-methylphenyl]-(5-hydroxy-1-methyl-1H-pyrazol-4-yl)-methanone]",Pytotoxicity ORYSA,"[1]; application rate 0.0039 kg/ha, scale 0 (no damage) to 100 (complete destruction)",20
same,Pytotoxicity ECHCG,[2],90
"FC(F)(F)c1ccc(-c2nccc(Oc3cccc(C(F)(F)F)c3)n2)cc1 [C, 4-(3-trifluoromethylphenoxy)-2-(4-trifluoromethylphenyl)pyrimidine]",Pytotoxicity ORYSA,"[1]; application rate 0.0078 kg/ha, scale 0 to 100",10
same,Pytotoxicity ORYSA,"[1]; application rate 0.0156 kg/ha, scale 0 to 100",10
same,Pytotoxicity TRZAS,[3]; application rate 0.0078 kg/ha,20
same,Pytotoxicity TRZAS,[3]; application rate 0.0156 kg/ha,25
same,Pytotoxicity TRZAS,[3]; application rate 0.0313 kg/ha,30
same,Pytotoxicity CHEAL,[4],98
same,Pytotoxicity PHBPU,"[5]; Table 2a, application rate 0.0078 kg/ha",98
same,Pytotoxicity PHBPU,"[5]; Table 2a, application rate 0.0156 kg/ha",98
same,Pytotoxicity PHBPU,"[5]; Table 2b, application rate 0.0078 kg/ha",98
same,Pytotoxicity PHBPU,"[5]; Table 2b, application rate 0.0156 kg/ha",98
